Test results: patent publication US20240043473A1, “NOOTROPIC PEPTIDES FOR TREATING LYSOSOMAL STORAGE DISEASES” (Phoenix Nest Inc., priority 2021, published 2024)
“Also recorded” adds a separate entry of the source. No end group written: not given here.

What was measured:
[1] = tested on: Hgsnat^P304L mice; assay: Survival / onset of lethal urinary retention under chronic daily treatment; format: in vivo, mouse; conditions: chronic daily 50 μg/kg BW; AVP6-treated Hgsnat^P304L mice
Experimental: (§1) Starting from 3 weeks of age, WT C57B16 and homozygous Hgsnat^P304L male and female mice were randomly divided in treatment and control groups (6-13 mice/sex/genotype/treatment; see Table I). The control group was daily administered with saline (5 μL to each nostril), while for the treatment group, saline was supplemented with 125 µg of AVP6/mL, which would result in a dose of approximately 50 μg/kg BW/day. The peptide formulation was prepared once, aliquoted and kept frozen at −80° C. until use. At 4 months, all mice were studied by EPM, OF, YM and NOR behavioral tests. Administration of the drug or saline was continued through the days on which the assays were conducted. Then approximately at 5 months 4-5 mice in each group were sacrificed. […] When such signs were detected, the mice were studied by ERG and sacrificed within 1-2 days. […]
Unlike human MPS III patients, Hgsnat^P304L mice at the age of approximately 8 months develop urinary retention resulting in abdominal distension and requiring humane euthanasia. […] Previously we determined the average survival age of Hgsnat^P304L mice as 42 weeks. To test whether the AVP6 treatment delayed development of this phenotype, mice in both treatment and vehicle groups were examined for the signs of urinary retention on a daily basis, starting from the age of 7 months, and immediately sacrificed, when abdominal distension was detected. […]

[2] = mouse, in vivo
Experimental: WT C57B16 4-month-old male mouse was dosed intranasally with 10 μl of 50 mM AVP6 in saline (5 μl/nostril). One hour after dosing, the mouse was anesthetized with sodium pentobarbital, and 500 μl of blood collected by cardiac puncture. Mouse was then sacrificed by cranial dislodgement and its brain and visceral organs extracted. Tissues and blood plasma were homogenized in acetonitrile (1:4, tissue/solvent ratio). The extracts were spiked with heavy isotope-labelled (Phe U-^13C9; U-^15N) AVP6 peptide as an internal standard, and analyzed by targeted LC-MS/MS, using parallel reaction monitoring on Orbitrap Exploris 480 instrument.
Peptide pharmaco-kinetics was determined by evaluation of AVP6 levels in CNS, blood and peripheral tissues at different time points (1-48 h) after intranasal delivery in the WT mice. The entire mouse brain was cut in four sections, rostral to caudal and assessed for biodistribution of AVP6 by targeted LC-MS/MS using parallel reaction monitoring. For quantification, samples were spiked with isotopically labeled (Phe U-^13C9; U-^15N) AVP6 peptide as an internal standard. Peptide levels were also measured in peripheral (liver, kidney, spleen) tissues and in blood to provide insights into peptide biodistribution and degradation rates.

[3] = tested on: somatosensory cortex and hippocampus of Hgsnat^P304L mice; assay: Brain immunohistochemistry after chronic treatment (synaptic markers, astrocytosis, microgliosis, lysosomal puncta); format: in vivo, mouse
Experimental: Mouse brains were collected from animals perfused with 4% PFA in PBS and post-fixed in 4% PFA in PBS overnight. Brains were cryopreserved in 30% sucrose for 2 days at 4° C., embedded in Tissue-Tek® OCT Compound and stored at −80° C. Brains were cut in 40 μm-thick sections and stored in cryopreservation buffer (0.05 M sodium phosphate buffer pH 7.4, 15% sucrose, 40% ethylene glycol) at −20° C. pending immunohistochemistry. Mouse brain sections were washed 3 times with PBS and permeabilized/blocked by incubating in 5% bovine serum albumin (BSA), 0.3% Triton X-100 in PBS for 1 h at room temperature. Incubation with primary antibodies, diluted in 1% BSA, 0.3% Triton X-100 in PBS, was performed overnight at 4° C.
The mouse brain sections were washed 3 times with PBS and counterstained with Alexa Fluor-labeled secondary antibodies (dilution 1:400) for 2 h at room temperature. After washing 3 times with PBS, the mouse brain sections were treated with TrueBlack® Lipofuscin Autofluorescence Quencher (Biotium, 23007, dilution 1:10) for 1 min, and then again washed 3 times with PBS. The slides were mounted with Prolong Gold Antifade mounting reagent with DAPI (Invitrogen, P36935) and analyzed using Leica DM 5500 Q upright confocal microscope (10×, 40×, and 63× oil objective, N.A. 1.4). Images were processed and quantified using ImageJ 1.50i software (National Institutes of Health. Bethesda, MD, USA) in a blinded fashion. Panels were assembled with Adobe Photoshop.
Starting from 3 weeks of age, WT C57B16 and homozygous Hgsnat^P304L male and female mice were randomly divided in treatment and control groups (6-13 mice/sex/genotype/treatment; see Table I). The control group was daily administered with saline (5 μL to each nostril), while for the treatment group, saline was supplemented with 125 µg of AVP6/mL, which would result in a dose of approximately 50 μg/kg BW/day. The peptide formulation was prepared once, aliquoted and kept frozen at −80° C. until use. At 4 months, all mice were studied by EPM, OF, YM and NOR behavioral tests. Administration of the drug or saline was continued through the days on which the assays were conducted. Then approximately at 5 months 4-5 mice in each group were sacrificed. Their blood plasma was collected, and their tissues were either snap-frozen or fixed and cryopreserved to analyze CNS pathology as described above. For the remaining mice, treatment was continued and their behaviour was studied again at the age of 6 months using OF. NOR and YM tests. Starting from the age of 8 months, Hgsnat^P304L treated and untreated mice were daily studied for the signs of urinary retention. When such signs were detected, the mice were studied by ERG and sacrificed within 1-2 days. Finally, the remaining treated and untreated WT mice were studied by ERG and sacrificed at the end of the study, approximately at 10 months of age.
After completion of the behavioural analysis at 4 months, 50% of mice in each group were sacrificed for analysis of CNS pathology and biochemical testing. To study the effect of the treatment on synaptic architecture, we have stained the brain sections for presynaptic (VGLUT1) and postsynaptic (PSD-95, BDNF) markers and quantified their levels in the CA1 area of hippocampi and in layers 3-4 of somatosensory cortex.
The terminal CNS pathology was studied using the same set of biomarkers as at 4 months, either by IHC (astrocytosis, microgliosis, synaptic markers SYN1, PSD-95, […], BDNF) or by biochemical (total β-hexosaminidase activity, expression levels of inflammatory cytokines) assays.

[4] = tested on: BDNF; assay: Mature BDNF levels in dissected hippocampi by Western blot; format: in vivo, mouse
Experimental: Method: AVP6 was administered intranasally at 50 μg/kg (5 μl/nostril) for 10 consecutive days. After sacrifice, changes in the levels of BDNF, a protein involved in long-term synaptic potentiation and memory consolidation, in the dissected hippocampi of mice were analyzed by Western blots.
The cerebral cortical tissues were homogenized in five volumes of RIPA lysis buffer (50 mM Tris-HCl pH 7.4, 150 mM NaCl, 1% NP-40, 0.25% sodium deoxycholate, 0.1% SDS, 2 mM EDTA, 1 mM PMSF), containing protease and […] inhibitor cocktails (Sigma, cat#4693132001 and 4906837001), using a Dounce homogenizer. The homogenates were kept on ice for 30 min and centrifuged at 13,000 g at 4° C. for 25 min. The supernatant was centrifuged again at 13,000 g for 15 min, the protein concentration in resulting lysates was measured, and 20 μg of protein from each sample was separated by SDS-PAGE on 4-20% precast polyacrylamide gel (Bio-Rad, 4561096). Western blot analyses were performed according to standard protocols using Anti-BDNF and α-tubulin (1:2000, mouse, DSHB) antibodies. Equal protein loading was confirmed by Ponceau S staining and normalized for tubulin immunoreactive band. Detected bands were quantified using ImageJ 1.50i software (National Institutes of Health, Bethesda, MD, USA).

[5] = tested on: β-hexosaminidase; assay: Total β-hexosaminidase activity in brain homogenates; format: in vivo, mouse; conditions: chronic daily 50 μg/kg BW, vs saline
Experimental: The activity of β-hexosaminidase was measured by combining 2.5 μl of 10× diluted homogenate ([…] of protein) with 15 μl of 0.1 M sodium acetate buffer (pH 4.2), and 12.5 μl of 3 mM 4-methylumbelliferyl N-acetyl-β-D-glucosaminide (Sigma-Aldrich) followed by incubation for 30 min at 37° C. The reaction was stopped 0.4 M glycine buffer (pH 10.4) and fluorescence was measured as above.
as §1, with “sacrificed. Their blood plasma was collected, and their tissues were either snap-frozen or fixed and cryopreserved to analyze CNS pathology as described above.” for “sacrificed.”

[6] = tested on: Hgsnat-Geo and Hgsnat^P304L MPS IIIC mice; assay: Novel Object Recognition test; format: in vivo, mouse; conditions: single dose 17 hours before the test
[7] = chronic daily 50 μg/kg BW from 3 weeks, Hgsnat^P304L mice at sacrifice (10-11 months)

## AVP6: N-terminally acetylated Semax, a nootropic peptide having the amino acid sequence of MEHFPGP (SEQ ID NO:1) (Ac-MEHFPGP)
[1]
  average survival age / life span: 49 weeks
[2]
  time the peptide level in the brain remained above the estimated acting concentration: 17 h
[3]; chronic daily 50 μg/kg BW from 3 weeks, Hgsnat^P304L mice at 5 months
  levels of synaptic markers VGLUT1, PSD-95 and BDNF in CA1 hippocampus and somatosensory cortex: are rescued
[3]; chronic daily 50 μg/kg BW from 3 weeks, Hgsnat^P304L mice at 5 months, vs saline
  GFAP+ astrocytes and CD68+ activated microglia in cortex and hippocampus: normalizes astrocytosis and microgliosis; also recorded: are reduced
[3]; [7]
  levels of post-synaptic proteins PSD-95 and BDNF: completely recovered; also recorded: are rescued in hippocampus and partially rescued in the somatosensory cortex
  levels of presynaptic proteins GLUT1 (VGLUT1) and SYN1: either increased in the AVP6-treated as compared with saline-treated Hgsnat^P304L mice, or remained significantly lower than those in WT animals; also recorded: are rescued in hippocampus and partially rescued in the somatosensory cortex
[3]; chronic daily 50 μg/kg BW, Hgsnat^P304L mice at 5 months, vs saline
  levels and sizes of LAMP2+/HS+ or GM2-ganglioside+ lysosomal puncta in cortical/hippocampal neurons: remained similar
[3]; chronic daily 50 μg/kg BW, Hgsnat^P304L mice at 10-11 months, vs saline, cortex levels remained above WT
  markers of astrocytosis and microgliosis, GFAP and CD68: significantly reduced; also recorded: reduces it; also recorded: reduces levels of activated GFAP+ astrocytes in the cortex (D) and CD68+ microglia in both cortex and hippocampus
[3]; chronic daily 50 μg/kg BW, Hgsnat^P304L mice at terminal timepoint
  LAMP2 levels in brain sections compared with WT: remained significantly increased
[4]; acute (24 h) intranasal administration, MPSIIIC mice
  mature BDNF levels: significantly increased
[4]; intranasal 50 μg/kg daily for 10 days, 4-month-old Hgsnat-Geo mice
  mature BDNF levels in hippocampus: significantly increased; also recorded: increases BDNF levels; also recorded: partially restored levels; also recorded: partially rescued
[5]; Hgsnat^P304L mice at 5 months
  total β-hexosaminidase activity in total brain homogenates: remained similar
[5]; Hgsnat^P304L mice at terminal timepoint
  total β-hexosaminidase activity in brain homogenates: trend for reduction
[6]
  behaviour in Novel Object Recognition test after single dose: did not improve behaviour
